Reference: patent US10294202B2, “Pyrrolidinones as herbicides” (FMC Corporation, priority 2013, dated 2019)

Assays:
barnyardgrass [1] = experiment: Test A pre-/postemergence herbicide test; assay type: in vivo, Echinochloa crus-galli
Procedure, shortened: (§1)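 Formulated compound (non-phytotoxic solvent, surfactant) sprayed pre- onto soil of seeded loam/sand pots or post- onto seedlings at 1–2 leaves; ~10 d greenhouse; 0–100 visual control rating versus untreated.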

crabgrass, large = experiment: Test A pre-/postemergence herbicide test; assay type: in vivo, Digitaria sanguinalis
Procedure, shortened: as §1

giant foxtail = experiment: Test A pre-/postemergence herbicide test; assay type: in vivo, Setaria faberii
Procedure, shortened: as §1

morningglory = experiment: Test A pre-/postemergence herbicide test; assay type: in vivo, Ipomoea spp.
Procedure, shortened: as §1

pigweed = experiment: Test A pre-/postemergence herbicide test; assay type: in vivo, Amaranthus retroflexus
Procedure, shortened: as §1

velvetleaf = experiment: Test A pre-/postemergence herbicide test; assay type: in vivo, Abutilon theophrasti
Procedure, shortened: as §1

wheat = experiment: Test A pre-/postemergence herbicide test; assay type: in vivo, Triticum aestivum
Procedure, shortened: as §1

corn = experiment: Test A pre-/postemergence herbicide test; assay type: in vivo, Zea mays
Procedure, shortened: as §1

rice = experiment: Test B flooded paddy test; assay type: in vivo, Oryza sativa; details: 1000 g ai/ha, Flood; scale of 0 to 100 where 0 is no effect and 100 is complete control
Procedure, shortened: (§2)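 2-leaf plants; flood 3 cm over soil; compound into paddy water; depth held. Greenhouse 13–15 d. Visual rating vs controls, 0 (no effect) to 100 (complete control); dash = not tested.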

sedge, umbrella = experiment: Test B flooded paddy test; assay type: in vivo, Cyperus difformis; details: 1000 g ai/ha, Flood; scale of 0 to 100 where 0 is no effect and 100 is complete control
Procedure, shortened: as §2

ducksalad = experiment: Test B flooded paddy test; assay type: in vivo, Heteranthera limosa; details: 1000 g ai/ha, Flood; scale of 0 to 100 where 0 is no effect and 100 is complete control
Procedure, shortened: as §2

barnyardgrass [2] = experiment: Test B flooded paddy test; assay type: in vivo, Echinochloa crus-galli; details: 1000 g ai/ha, Flood; scale of 0 to 100 where 0 is no effect and 100 is complete control
Procedure, shortened: as §2

[3] = 125 g ai/ha, visual rating, 0 to 100 scale, 0 no effect, 100 complete control, approximately 10 days, preemergence
[4] = Postemergence, 500 g ai/ha, 0 to 100 scale (0 no effect, 100 complete control)
[5] = preemergence, 500 g ai/ha, 0 to 100 scale (0 no effect, 100 complete control)
[6] = Postemergence, 125 g ai/ha, 0 to 100 scale, 0 no effect, 100 complete control
[7] = preemergence, 500 g ai/ha, 0 to 100 scale
[8] = Postemergence, 1000 g ai/ha, 0 to 100 scale (0 no effect, 100 complete control)
[9] = preemergence, 1000 g ai/ha, 0 to 100 scale

## O=C1NCC(c2ccc3ccccc3c2)C1C(=O)Nc1cccc(F)c1F (racemic) [Compound 116]
Barnyardgrass [1]; [3]
  Plant response rating, Barnyardgrass: 0
Barnyardgrass [1]; [4]
  Plant response rating, Barnyardgrass: 40
Barnyardgrass [1]; [5]
  Plant response rating, Barnyardgrass: 50
crabgrass, large; [3]
  Plant response rating, Crabgrass, Large: 70
crabgrass, large; [6]
  Plant response rating, Crabgrass, Large: 20
crabgrass, large; Postemergence, 500 g ai/ha
  Crabgrass, Large plant response rating (0 to 100 scale, 0 is no effect, 100 is complete control): 30
crabgrass, large; [7]
  Plant response rating, Crabgrass, Large: 80
Giant foxtail; [3]
  Plant response rating, Foxtail, Giant: 0
Giant foxtail; [6]
  Plant response rating, Foxtail, Giant: 0
Giant foxtail; Postemergence, 500 g ai/ha
  Foxtail, Giant plant response rating (0 to 100 scale, 0 is no effect, 100 is complete control): 20
Giant foxtail; [7]
  Plant response rating, Foxtail, Giant: 30
morningglory; [3]
  Plant response rating, Morningglory: 0
morningglory; [6]
  Plant response rating, Morningglory: 0
morningglory; Postemergence, 500 g ai/ha
  Morningglory plant response rating (0 to 100 scale, 0 is no effect, 100 is complete control): 0
morningglory; [7]
  Plant response rating, Morningglory: 0
pigweed; [3]
  Plant response rating, Pigweed: 0
pigweed; [6]
  Plant response rating, Pigweed: 0
pigweed; Postemergence, 500 g ai/ha
  Pigweed plant response rating (0 to 100 scale, 0 is no effect, 100 is complete control): 0
pigweed; [7]
  Plant response rating, Pigweed: 0
velvetleaf; [3]
  Plant response rating, Velvetleaf: 0
velvetleaf; [6]
  Plant response rating, Velvetleaf: 0
velvetleaf; Postemergence, 500 g ai/ha
  Velvetleaf plant response rating (0 to 100 scale, 0 is no effect, 100 is complete control): 0
velvetleaf; [7]
  Plant response rating, Velvetleaf: 0
wheat; [3]
  Plant response rating, Wheat: 0
wheat; [6]
  Plant response rating, Wheat: 0
wheat; Postemergence, 500 g ai/ha
  Wheat plant response rating (0 to 100 scale, 0 is no effect, 100 is complete control): 0
wheat; [7]
  Plant response rating, Wheat: 0
corn; [3]
  Plant response rating, Corn: 0
corn; [6]
  Plant response rating, Corn: 0
corn; [4]
  Plant response rating, Corn: 20
corn; [7]
  Plant response rating, Corn: 0
rice
  Plant response rating, Rice: 15
sedge, umbrella
  Plant response rating, Sedge, Umbrella: 0
ducksalad
  Plant response rating, Ducksalad: 80
Barnyardgrass [2]
  Plant response rating, Barnyardgrass: 20

## O=C1NCC(c2ccc3ccccc3c2)C1C(=O)Nc1ccccc1C(F)(F)F (racemic) [Compound 117]
Barnyardgrass [1]; [3]
  Plant response rating, Barnyardgrass: 0
Barnyardgrass [1]; [6]
  Plant response rating, Barnyardgrass: 0
Barnyardgrass [1]; [4]
  Plant response rating, Barnyardgrass: 30
Barnyardgrass [1]; [5]
  Plant response rating, Barnyardgrass: 20
crabgrass, large; [3]
  Plant response rating, Crabgrass, Large: 60
crabgrass, large; [6]
  Plant response rating, Crabgrass, Large: 30
crabgrass, large; Postemergence, 500 g ai/ha
  Crabgrass, Large plant response rating (0 to 100 scale, 0 is no effect, 100 is complete control): 60
crabgrass, large; [7]
  Plant response rating, Crabgrass, Large: 80
Giant foxtail; [3]
  Plant response rating, Foxtail, Giant: 20
Giant foxtail; [6]
  Plant response rating, Foxtail, Giant: 20
Giant foxtail; Postemergence, 500 g ai/ha
  Foxtail, Giant plant response rating (0 to 100 scale, 0 is no effect, 100 is complete control): 50
Giant foxtail; [7]
  Plant response rating, Foxtail, Giant: 70
morningglory; [3]
  Plant response rating, Morningglory: 0
morningglory; [6]
  Plant response rating, Morningglory: 0
morningglory; Postemergence, 500 g ai/ha
  Morningglory plant response rating (0 to 100 scale, 0 is no effect, 100 is complete control): 0
morningglory; [7]
  Plant response rating, Morningglory: 0
pigweed; [3]
  Plant response rating, Pigweed: 0
pigweed; [6]
  Plant response rating, Pigweed: 0
pigweed; Postemergence, 500 g ai/ha
  Pigweed plant response rating (0 to 100 scale, 0 is no effect, 100 is complete control): 0
pigweed; [7]
  Plant response rating, Pigweed: 0
velvetleaf; [3]
  Plant response rating, Velvetleaf: 0
velvetleaf; [6]
  Plant response rating, Velvetleaf: 0
velvetleaf; Postemergence, 500 g ai/ha
  Velvetleaf plant response rating (0 to 100 scale, 0 is no effect, 100 is complete control): 0
velvetleaf; [7]
  Plant response rating, Velvetleaf: 0
wheat; [3]
  Plant response rating, Wheat: 0
wheat; [6]
  Plant response rating, Wheat: 0
wheat; Postemergence, 500 g ai/ha
  Wheat plant response rating (0 to 100 scale, 0 is no effect, 100 is complete control): 0
wheat; [7]
  Plant response rating, Wheat: 0
corn; [3]
  Plant response rating, Corn: 0
corn; [6]
  Plant response rating, Corn: 0
corn; [4]
  Plant response rating, Corn: 20
corn; [7]
  Plant response rating, Corn: 0
rice
  Plant response rating, Rice: 0
sedge, umbrella
  Plant response rating, Sedge, Umbrella: 0
ducksalad
  Plant response rating, Ducksalad: 90
Barnyardgrass [2]
  Plant response rating, Barnyardgrass: 40

## O=C1NCC(c2ccc(F)c(F)c2)C1C(=O)Nc1ccc(F)cc1 (racemic) [Compound 193]
Barnyardgrass [1]; [8]
  Plant response rating, Barnyardgrass: 90
Barnyardgrass [1]; preemergence, 1000 g ai/ha, 0 to 100 scale (0 no effect, 100 complete control)
  Plant response rating, Barnyardgrass: 80
crabgrass, large; [8]
  Plant response rating, Crabgrass, Large: 90
crabgrass, large; [9]
  Plant response rating, Crabgrass, Large: 100
Giant foxtail; [8]
  Plant response rating, Foxtail, Giant: 80
Giant foxtail; [9]
  Plant response rating, Foxtail, Giant: 90
morningglory; [8]
  Plant response rating, Morningglory: 0
morningglory; [9]
  Plant response rating, Morningglory: 0
pigweed; [8]
  Plant response rating, Pigweed: 0
pigweed; [9]
  Plant response rating, Pigweed: 0
velvetleaf; [8]
  Plant response rating, Velvetleaf: 0
velvetleaf; [9]
  Plant response rating, Velvetleaf: 0
wheat; [8]
  Plant response rating, Wheat: 0
wheat; [9]
  Plant response rating, Wheat: 0
corn; [8]
  Plant response rating, Corn: 0
corn; [9]
  Plant response rating, Corn: 0
rice
  Plant response rating, Rice: 20
sedge, umbrella
  Plant response rating, Sedge, Umbrella: 20
ducksalad
  Plant response rating, Ducksalad: 60
Barnyardgrass [2]
  Plant response rating, Barnyardgrass: 0
